Columns and labels:
[1] = molecular target: T1, human adenosine A2b receptor (Homo sapiens (Human), UniProt P29275); assay: Cellular in vitro reporter gene test for A2b receptor activity (CHO-K1, CRE-luciferase, NECA stimulation); assay type: cell-based; conditions: recombinant CHO-K1 cell line, CRE-luciferase reporter, antagonism of EC50 concentration of NECA; in some cases means of several determinations, rounded to two significant figures; read-out: A2b receptor IC50
How it was run: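 CHO-K1 cells with CRE-driven luciferase; antagonists co-incubated with NECA at its EC50, determined in a pre-experiment on each test day. Luciferase read by luminescence 3 h after NECA addition.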

[2] = system: IL-6 release by human fibroblast cell line LL29; assay: NECA-induced IL-6 release by LL29 fibroblasts (ELISA); assay type: cell-based; conditions: LL29 cells, NECA 10 μM, 24 hours incubation, IL-6 in supernatant by ELISA
Description: B-3. Measurement of NECA-Induced IL-6 Release by LL29 Fibroblasts
Stimulation of fibroblasts with adenosine or the adenosine analog 5′-N-ethylcarboxamidoadenosine (NECA) leads to release of the pro-inflammatory and pro-fibrotic cytokine IL-6 which can be prevented by inhibition of the A2b receptor.
Accordingly, confluent cells of the human fibroblast cell line LL29 were treated with the test substances and stimulated with NECA (10 μM). After an incubation time of 24 hours, the cell supernatant is removed and human IL-6 in the cell supernatant is determined by ELISA (Quantikine® IL6 ELISA, R&D Systems, Minneapolis, USA).
Table 3 below lists the IC50 values obtained in this way for inhibition of IL-6 release for some working examples: […]

[3] = molecular target: human adenosine A3 receptor (Homo sapiens (Human), UniProt P0DMS8); assay: Adenosine receptor radioligand binding assay, A3 ([125I]-AB-MECA, HEK293 membranes); conditions: radioligand [125I]-AB-MECA, HEK293 membrane preparation; Cheng-Prusoff
human adenosine A3 receptor, sequence (P0DMS8 whole entry): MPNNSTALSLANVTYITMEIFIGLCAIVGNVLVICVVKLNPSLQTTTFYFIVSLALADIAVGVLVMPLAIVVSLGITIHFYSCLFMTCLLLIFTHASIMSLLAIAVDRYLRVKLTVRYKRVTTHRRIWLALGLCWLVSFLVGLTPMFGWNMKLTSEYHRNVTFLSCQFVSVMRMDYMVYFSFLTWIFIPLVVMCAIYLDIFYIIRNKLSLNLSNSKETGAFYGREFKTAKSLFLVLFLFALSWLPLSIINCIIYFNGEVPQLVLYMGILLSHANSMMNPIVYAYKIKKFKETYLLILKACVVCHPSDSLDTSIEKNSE
Description: (§1) B-2. Adenosine Receptor Binding Assays
(§2) The binding properties of the test compounds on adenosine receptors were determined in binding studies with radioligands. For this purpose, membrane preparations of the human adenosine receptor subtypes were produced from cell lines having recombinant receptor expression (CHO cells for the A1 receptor, HEK293 cells for the A2a, A2b and A3 receptors). The following radioligands were used in the experiments: [^3H]-DPCPX for the A1 receptor, [^3H]-CGS 21680 for the A2a receptor, [^3H]-CPX for the A2b receptor and [^125I]-AB-MECA for the A3 receptor. The test substances were each tested in 8 different concentrations and 2 repeat tests per concentration. The displacement of the particular radioligand by the test compound was expressed as percentage inhibition of the specific binding of the controls. The IC50 values (concentration which brings about half-maximum inhibition of the specific binding of the controls) and the Hill coefficients (nH) were determined by a non-linear regression analysis, using the competition curves obtained from the mean values of the repeat tests and conducting a curve fit according to the Hill equation: Y=D+[A−D/1+(C/C50)^nH] (Y=specific binding; A=left-hand asymptote of the curve; D=right-hand asymptote of the curve; C=substance concentration; C50=IC50; nH=rise factor).
(§3) The inhibition constant (Ki) was calculated by the Cheng-Prusoff equation: Ki=IC50/(1+L/KD) (L=concentration of the radioligand in the assay; KD=receptor affinity of the radioligand for the receptor, determined with a Scatchard plot). [Literature: A1 receptor: Townsend-Nicholson, A. and Schofield, P. R., J. Biol. Chem. 269: 2373-2376 (1994); A2a receptor: Luthin, D. R. et al., Mol. Pharmacol. 47: 307-313 (1995); A2b receptor: Stehle, J. H. et al., Mol. Endocrinol. 6: 384-393 (1992) and Linden et al., Mol. Pharmacol. 56: 705-713 (1999); A3 receptor: Salvatore, C. A. et al., Proc. Natl. Acad. Sci. U.S.A. 90: 10365-10369 (1993) and Jacobson, K. A. et al., Neuropharmacology 36: 1157-1165 (1997)].
(§4) Table 2 below lists the Ki values thus determined from these binding assays for representative working examples: […]

[4] = molecular target: human adenosine A2a receptor (Homo sapiens (Human), UniProt P29274); assay: Adenosine receptor radioligand binding assay, A2a ([3H]-CGS 21680, HEK293 membranes); conditions: radioligand [3H]-CGS 21680, HEK293 membrane preparation; Cheng-Prusoff
human adenosine A2a receptor, sequence (P29274 whole entry): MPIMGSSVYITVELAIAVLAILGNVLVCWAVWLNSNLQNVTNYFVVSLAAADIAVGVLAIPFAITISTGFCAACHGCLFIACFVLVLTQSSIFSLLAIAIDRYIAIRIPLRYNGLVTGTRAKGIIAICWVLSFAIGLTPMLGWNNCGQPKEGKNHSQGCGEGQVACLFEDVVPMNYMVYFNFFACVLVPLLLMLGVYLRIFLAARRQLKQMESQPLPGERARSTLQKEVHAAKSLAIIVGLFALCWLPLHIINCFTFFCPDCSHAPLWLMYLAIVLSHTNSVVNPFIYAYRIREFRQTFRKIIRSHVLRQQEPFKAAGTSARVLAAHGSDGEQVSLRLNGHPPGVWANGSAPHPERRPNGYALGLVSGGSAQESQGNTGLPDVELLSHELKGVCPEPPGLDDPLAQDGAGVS
Description: as §1, §2, §3, §4

[5] = molecular target: human adenosine A1 receptor (Homo sapiens (Human), UniProt P30542); assay: Adenosine receptor radioligand binding assay, A1 ([3H]-DPCPX, CHO membranes); conditions: radioligand [3H]-DPCPX, CHO membrane preparation; Cheng-Prusoff
human adenosine A1 receptor, sequence (P30542 whole entry): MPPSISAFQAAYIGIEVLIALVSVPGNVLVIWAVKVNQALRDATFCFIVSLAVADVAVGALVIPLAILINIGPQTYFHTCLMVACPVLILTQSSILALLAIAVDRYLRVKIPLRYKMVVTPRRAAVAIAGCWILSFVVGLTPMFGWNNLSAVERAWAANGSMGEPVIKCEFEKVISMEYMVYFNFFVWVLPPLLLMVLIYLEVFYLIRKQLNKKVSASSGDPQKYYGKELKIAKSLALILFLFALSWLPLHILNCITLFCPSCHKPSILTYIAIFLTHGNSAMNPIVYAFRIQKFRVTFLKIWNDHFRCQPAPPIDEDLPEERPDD
Description: as §1, §2, §3, §4

[6] = molecular target: T1, human adenosine A2b receptor; assay: Adenosine receptor radioligand binding assay, A2b ([3H]-CPX, HEK293 membranes); conditions: radioligand [3H]-CPX, HEK293 membrane preparation; Cheng-Prusoff
Description: as §1, §2, §3, §4

[7] = system: colon cancer cell lines; conditions: A2b receptor antagonist; cited from earlier work
[8] = system: human pulmonary arterial endothelial and smooth muscle cells; conditions: stimulation with adenosine analogue; cited from earlier work
[9] = system: human fibroblasts; conditions: stimulation with adenosine analogue; increased by hypoxia; cited from earlier work
[10] = system: bladder tumours and breast tumours; conditions: bladder and breast tumour animal models; cited from earlier work

T1 sequence (P29275 whole entry): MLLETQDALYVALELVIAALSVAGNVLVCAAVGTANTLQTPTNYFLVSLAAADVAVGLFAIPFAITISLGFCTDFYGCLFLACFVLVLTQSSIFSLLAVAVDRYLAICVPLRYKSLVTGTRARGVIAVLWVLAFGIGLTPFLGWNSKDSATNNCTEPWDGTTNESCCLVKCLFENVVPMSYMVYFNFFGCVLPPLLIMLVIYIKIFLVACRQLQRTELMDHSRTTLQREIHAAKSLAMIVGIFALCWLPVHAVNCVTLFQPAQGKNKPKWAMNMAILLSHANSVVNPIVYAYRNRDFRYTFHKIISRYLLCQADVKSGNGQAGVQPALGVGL

IC50 [1] [nM]	Ki [4] [nM]	Ki [5] [nM]	Ki [6] [nM]	SMILES	also measured
4.4	–	–	–	COCCn1c(=O)n(CCc2ccccc2)c(=O)c2c(C)c(CN3CCCC3=O)sc21 [Example 3, 1-(2-Methoxyethyl)-5-methyl-6-[(2-oxopyrrolidin-1-yl)methyl]-3-(2-phenylethyl)thieno[2,3-d]pyrimidine-2,4(1H,3H)-dione]	IC50 [2]: 15 nM
5.1	120	330	2.4	CCn1c(=O)c2c(C)c(CN3CCNC3=O)sc2n(CCOC)c1=O [Example 59, 3-Ethyl-1-(2-methoxyethyl)-5-methyl-6-[(2-oxoimidazolidin-1-yl)methyl]thieno[2,3-d]pyrimidine-2,4(1H,3H)-dione]	Ki [3]: 11000 nM
–	–	–	–	CCCn1c(=O)c2[nH]c(-c3ccc(OCC(=O)Nc4ccc(C#N)cc4)cc3)nc2n(CCC)c1=O [MRS1754]	growth of colon cancer cell lines [7]: reduced growth
24	790	3300	12	CCn1c(=O)c2c(C)c(Cn3cn[nH]c3=O)sc2n(CCC(F)(F)F)c1=O [Example 116, 3-Ethyl-5-methyl-6-[(5-oxo-1,5-dihydro-4H-1,2,4-triazol-4-yl)methyl]-1-(3,3,3-trifluoropropyl)thieno[2,3-d]pyrimidine-2,4(1H,3H)-dione]	Ki [3]: 330 nM
6.4	270	1100	2.7	COCCn1c(=O)n(C(C)C)c(=O)c2c(C)c(CN3CCNC3=O)sc21 [Example 86, 3-Isopropyl-1-(2-methoxyethyl)-5-methyl-6-[(2-oxoimidazolidin-1-yl)methyl]thieno[2,3-d]pyrimidine-2,4(1H,3H)-dione]	Ki [3]: 160000 nM
4.5	–	–	–	COCCn1c(=O)n(CCc2ccccc2)c(=O)c2c(C)c(CN3CCN(C)C3=O)sc21 [Example 102, 1-(2-Methoxyethyl)-5-methyl-6-[(3-methyl-2-oxoimidazolidin-1-yl)methyl]-3-(2-phenylethyl)thieno[2,3-d]pyrimidine-2,4(1H,3H)-dione]	IC50 [2]: 5 nM
–	–	–	–	CCNC(=O)[C@H]1O[C@@H](n2cnc3c(N)ncnc32)[C@H](O)[C@@H]1O [NECA, 5′-(N-ethylcarboxamido)adenosine]	release of ET-1 and IL-6 [8]: release of ET-1 and IL-6; release of IL-6 [9]: release of IL-6
–	–	–	–	CCCn1c(=O)n(C2CC2)c(=O)c2[nH]c(-c3ccc(N(CC)C(=O)c4cccnc4)nc3)nc21 [ATL801]	metastasis [10]: distinct reduction in metastasis; tumour growth [10]: slowing of tumour growth
4.3	280	950	5.2	CCn1c(=O)c2c(C)c(CN3CCNC3=O)sc2n(CC2CCO2)c1=O (single isomer, unassigned; enantiomer 1) [Example 66, 3-Ethyl-5-methyl-1-(oxetan-2-ylmethyl)-6-[(2-oxoimidazolidin-1-yl)methyl]thieno[2,3-d]pyrimidine-2,4(1H,3H)-dione (Enantiomer 1)]	Ki [3]: 6800 nM
8.1	1700	1500	6.4	CCn1c(=O)c2c(C)c(Cn3nc[nH]c3=O)sc2n(CCC(F)(F)F)c1=O [Example 113, 3-Ethyl-5-methyl-6-[(5-oxo-4,5-dihydro-1H-1,2,4-triazol-1-yl)methyl]-1-(3,3,3-trifluoropropyl)thieno[2,3-d]pyrimidine-2,4(1H,3H)-dione]	–
4.2	100	590	2.8	CCn1c(=O)c2c(C)c(Cn3cc[nH]c3=O)sc2n(CCOC)c1=O [Example 109, 3-Ethyl-1-(2-methoxyethyl)-5-methyl-6-[(2-oxo-2,3-dihydro-1H-imidazol-1-yl)methyl]thieno[2,3-d]pyrimidine-2,4(1H,3H)-dione]	Ki [3]: 14000 nM
6.1	–	–	–	COC(C)Cn1c(=O)c2c(C)c(CN3CCNC3=NC#N)sc2n(CCC(F)(F)F)c1=O (racemic) [Example 454, [1-{[3-(2-Methoxypropyl)-5-methyl-2,4-dioxo-1-(3,3,3-trifluoropropyl)-1,2,3,4-tetrahydrothieno[2,3-d]pyrimidin-6-yl]methyl}imidazolidin-2-ylidene]cyanamide]	–
17	–	–	–	Cc1c(CN2CCNC2=NC#N)sc2c1c(=O)n(CC(C)(C)C)c(=O)n2CC1CCCO1 (single isomer, unassigned) [Example 448, [1-{[3-(2,2-Dimethylpropyl)-5-methyl-2,4-dioxo-1-(tetrahydrofuran-2-ylmethyl)-1,2,3,4-tetrahydrothieno[2,3-d]pyrimidin-6-yl]methyl}imidazolidin-2-ylidene]cyanamide]	–
12	–	–	–	Cc1c(CN2CCNC2=O)sc2c1c(=O)n(CC(C)(C)C)c(=O)n2CC1CCCO1 (single isomer, unassigned) [Example 408, 3-(2,2-Dimethylpropyl)-5-methyl-6-[(2-oxoimidazolidin-1-yl)methyl]-1-(tetrahydrofuran-2-ylmethyl)thieno[2,3-d]pyrimidine-2,4(1H,3H)-dione]	–
5.6	–	–	–	CCn1c(=O)c2c(C(F)(F)F)c(CN3CCCS3(=O)=O)sc2n(CCC(F)(F)F)c1=O [Example 19, 6-[(1,1-Dioxido-1,2-thiazolidin-2-yl)methyl]-3-ethyl-5-(trifluoromethyl)-1-(3,3,3-trifluoropropyl)thieno[2,3-d]pyrimidine-2,4(1H,3H)-dione]	–
8	–	–	–	CCn1c(=O)c2c(C)c(CN3CCC(C)C3=O)sc2n(CCC(F)(F)F)c1=O (racemic) [Example 6, 3-Ethyl-5-methyl-6-[(3-methyl-2-oxopyrrolidin-1-yl)methyl]-1-(3,3,3-trifluoropropyl)thieno[2,3-d]pyrimidine-2,4(1H,3H)-dione (racemate)]	–
3.6	–	–	–	COCCn1c(=O)n(CCc2ccccc2)c(=O)c2c(C)c(CN3CCOC3=O)sc21 [Example 20, 1-(2-Methoxyethyl)-5-methyl-6-[(2-oxo-,3-oxazolidin-3-yl)methyl]-3-(2-phenylethyl)thieno[2,3-d]pyrimidine-2,4(1H,3H)-dione]	IC50 [2]: 5 nM
29	–	–	–	CCn1c(=O)c2c(C)c(CN3CCNC3=O)sc2n(CC2CCO2)c1=O (single isomer, unassigned; enantiomer 2) [Example 67, 3-Ethyl-5-methyl-1-(oxetan-2-ylmethyl)-6-[(2-oxoimidazolidin-1-yl)methyl]thieno[2,3-d]pyrimidine-2,4(1H,3H)-dione (Enantiomer 2)]	–
180	–	–	–	CCn1c(=O)c2c(C)c(Cn3[nH]ccc3=O)sc2n(CC2CCCO2)c1=O (single isomer, unassigned) [Example 131, 3-Ethyl-5-methyl-6-[(5-oxo-2,5-dihydro-1H-pyrazol-1-yl)methyl]-1-(tetrahydrofuran-2-ylmethyl)thieno[2,3-d]pyrimidine-2,4(1H,3H)-dione]	–

Reference: patent publication US10428083B2, “Heterocyclylmethyl-thienouracile as antagonists of the adenosine-A2B-receptor” (BAYER PHARMA AKTIENGESELLSCHAFT, priority 2015, dated 2019)
